Among the test systems are M14; CAKI-1; NCI-H460; T47D; MCF7; SK-MEL-2; IGROV-1; CCRF-CEM; SF-295; NCI-H23; HOP-92; LOX IMVI; XF498; NCI/ADR-RES; MDA-N; SR; TK-10; HOP-62; OVCAR-8; M19-MEL.
What all share (experiment): DTP human tumour cell line panel, 48 h

SMILES strings stand for the structures.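 Protocol summary: plate cells (96-well), add compound at 5 concentrations, incubate 48 h, interpolate endpoints linearly. The concentration for 50% growth inhibition is given as GI50.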 The source made the active and inactive calls. No stated cut-off is given here; in the data, active = GI50 up to about 1.1 µM and inactive = higher.

Experimental findings from ChEMBL document CHEMBL1201862, “PubChem BioAssay data set” (2004) are described below.

For the molecule `N#Cc1cccc(N2C(=O)C3C4C=CC(C3C2=O)C2C(=O)N(c3cccc(C#N)c3)C(=O)C42)c1` (stereo not drawn), the GI50 is 59 µM (inactive) in the assay on M14; 55.5 µM (inactive) in the assay with CAKI-1; > 63.1 µM (inactive) with NCI-H460; > 31.6 µM (inactive) with T47D; > 100 µM (inactive) with MCF7; 22.8 µM (inactive) with SK-MEL-2. The GI50 is 29.7 µM (inactive) in the assay on IGROV-1; 44.8 µM (inactive) in the assay with CCRF-CEM; 17.1 µM (inactive) with SF-295; 27.6 µM (inactive) in the assay with NCI-H23; 15.2 µM (inactive) in the assay with HOP-92; 61.9 µM (inactive) in the assay on LOX IMVI. Besides, the GI50 with XF498 was 15.5 µM (inactive); with NCI/ADR-RES, > 100 µM (inactive); with MDA-N, > 100 µM (inactive); with SR, 37.6 µM (inactive); in the assay with TK-10 it was 26.5 µM (inactive); in the assay on HOP-62, 18.3 µM (inactive). Also, in the assay on OVCAR-8, the GI50 was 37.8 µM (inactive).

For the molecule `Cc1cc(NC(=O)NC(=O)c2ccccc2NC(=O)C(C)N)ccc1Oc1ncc(Br)cn1` (stereo not drawn), the GI50 with M14 is 0.13 µM (active); in the assay with CAKI-1, 0.0173 µM (active); in the assay on NCI-H460 it was 0.179 µM (active); in the assay on T47D, 15.1 µM (inactive); in the assay on MCF7, 0.152 µM (active); with SK-MEL-2, 0.153 µM (active). Also, the GI50 with IGROV-1 is 0.153 µM (active); with M19-MEL, 0.292 µM (active); in the assay on CCRF-CEM, 0.0619 µM (active); with SF-295, 0.0256 µM (active); in the assay on NCI-H23, 0.172 µM (active); in the assay with HOP-92, 1.92 µM (inactive). Moreover, the GI50 in the assay on LOX IMVI is 0.173 µM (active); in the assay on NCI/ADR-RES it was 0.0208 µM (active); in the assay on MDA-N it was 0.0202 µM (active); in the assay with SR, 0.111 µM (active); with TK-10 it was 1.22 µM (inactive); with HOP-62, 0.0306 µM (active). The GI50 with OVCAR-8 was 0.141 µM (active).

Regarding `CC(Oc1ccc2c(-c3ccc(Cl)cc3)cc(=O)oc2c1)C(=O)O` (stereo not drawn), the GI50 in the assay on M14, in the assay on CAKI-1, in the assay with NCI-H460, in the assay on IGROV-1, in the assay on CCRF-CEM and in the assay on SF-295 was > 100 µM (inactive) in each case. Moreover, the GI50 in the assay with NCI-H23 was > 100 µM (inactive); with HOP-92 it was > 100 µM (inactive); in the assay with LOX IMVI it was > 100 µM (inactive); with XF498, 2.35 µM (inactive); with SR, > 100 µM (inactive); with TK-10, > 100 µM (inactive). Besides, the GI50 in the assay on HOP-62 and with OVCAR-8 was > 100 µM (inactive) in each case.

As to `C=C1C(=O)C23C(CC(OC(C)=O)C1[C@@H]2OC(C)=O)C1(C)C(OC(C)=O)CCC(C)(C)C1C[C@@H]3OC(C)=O` (stereo partly drawn), the GI50 was 1.56 µM (inactive) with M14; 0.653 µM (active) in the assay with CAKI-1; 1.61 µM (inactive) with NCI-H460; 1.93 µM (inactive) in the assay with SK-MEL-2; 1.45 µM (inactive) in the assay with IGROV-1; 1.75 µM (inactive) in the assay with M19-MEL. The GI50 was 1.46 µM (inactive) in the assay with SF-295; 0.167 µM (active) in the assay with HOP-92; 1.24 µM (inactive) in the assay on LOX IMVI; 1.57 µM (inactive) in the assay on SR; 3.14 µM (inactive) in the assay with HOP-62; 0.418 µM (active) in the assay with OVCAR-8.

Take `[O-][S+]1c2ccccc2N=C(c2ccc3ccccc3c2)CC1C1=CC=CCC1` (stereo not drawn): the GI50 with M14 is 18.7 µM (inactive); in the assay on CAKI-1, 16.1 µM (inactive); in the assay on NCI-H460 it was 20.3 µM (inactive); with SK-MEL-2, 19.1 µM (inactive); with IGROV-1, 13.2 µM (inactive); in the assay with M19-MEL, 17.1 µM (inactive). Further, the GI50 in the assay with CCRF-CEM was 7.19 µM (inactive); in the assay on SF-295, 17.7 µM (inactive); with NCI-H23, 14.6 µM (inactive); in the assay with LOX IMVI it was 15.4 µM (inactive); in the assay with XF498 it was 17.1 µM (inactive); in the assay on TK-10, 22.2 µM (inactive). For the same molecule, the values for the GI50 in the assay with HOP-62 and with OVCAR-8 were 19.1 µM (inactive) and 20.3 µM (inactive), respectively.

As to `CCN(CC)C(=S)SC1CCOP(=O)(N(CCCl)CCCl)N1C` (stereo not drawn), the GI50 is > 39.7 µM (inactive) in the assay with M14; 45.6 µM (inactive) with CAKI-1; 1.02 µM (active) in the assay on NCI-H460; 61.7 µM (inactive) with T47D; 69.3 µM (inactive) with MCF7; 20.5 µM (inactive) in the assay on SK-MEL-2. Also, the GI50 in the assay on IGROV-1 is 4.34 µM (inactive); in the assay on M19-MEL, 0.212 µM (active); with CCRF-CEM, 0.109 µM (active); in the assay on SF-295 it was 55.6 µM (inactive); with NCI-H23 it was > 100 µM (inactive); in the assay on HOP-92 it was 28.2 µM (inactive). In addition, the GI50 in the assay on LOX IMVI was 1.41 µM (inactive); with NCI/ADR-RES, > 100 µM (inactive); with MDA-N, > 100 µM (inactive); in the assay with SR, 0.185 µM (active); in the assay with TK-10 it was > 71.1 µM (inactive); in the assay on HOP-62, > 95.1 µM (inactive). The GI50 in the assay on OVCAR-8 was 29.9 µM (inactive).

`COC(=O)C12CC(C3CC31)C1CC12` (stereo not drawn): the GI50 in the assay on M14, in the assay with CAKI-1, in the assay with NCI-H460, with IGROV-1, in the assay on M19-MEL and with CCRF-CEM was > 100 µM (inactive) each time. For the same molecule, the GI50 is > 100 µM (inactive) in the assay with SF-295; > 100 µM (inactive) in the assay on NCI-H23; 59 µM (inactive) in the assay on HOP-92; > 100 µM (inactive) in the assay on LOX IMVI; > 100 µM (inactive) with SR; > 100 µM (inactive) in the assay with TK-10. The GI50 with HOP-62 and in the assay with OVCAR-8 was > 100 µM (inactive) throughout.

Consider `CC12CO[C@@](C)(CC(S(=O)(=O)c3ccccc3)C1)O2` (stereo partly drawn), for which the GI50 with M14, in the assay with NCI-H460, with SK-MEL-2, in the assay on IGROV-1, with M19-MEL and in the assay with CCRF-CEM was > 100 µM (inactive) in each case. The GI50 in the assay with SF-295, with NCI-H23, in the assay on HOP-92, with SR, with HOP-62 and in the assay with OVCAR-8 was > 100 µM (inactive) in each case.

As for `COc1ccc2ccc3c(c2c1)CN1CCc2cc(OC)c(OC)cc2C1C3` (stereo not drawn), the GI50 with M14, in the assay on CAKI-1, in the assay with NCI-H460, in the assay on SK-MEL-2, with IGROV-1 and in the assay with CCRF-CEM was > 100 µM (inactive) in each case. Besides, the GI50 with SF-295 is > 100 µM (inactive); with NCI-H23, > 100 µM (inactive); with HOP-92, > 100 µM (inactive); in the assay with LOX IMVI, > 100 µM (inactive); in the assay on XF498, 60.3 µM (inactive); in the assay with SR, > 100 µM (inactive). For the same molecule, the GI50 with TK-10, in the assay with HOP-62 and with OVCAR-8 was > 100 µM (inactive) in each case.
